In patent publication US6943166B1, “Compositions comprising phosphodiesterase inhabitors for the treatment of sexual disfunction” (Lilly ICOS LLC., priority 1999, dated 2005):

What was measured:
[1] = test system: patients taking organic nitrates; settings: combination with organic nitrates; cited from earlier work
PDEl = settings: package insert; cited from earlier work
healthy male volunteers = test: Example 5: drug interaction study of Compound (I) with short-acting nitrates (hemodynamic effects); format: in vivo, human
Experimental: On the sixth or seventh day, the subjects received sublingual nitroglycerin (0.4 mg) while supine on a tilt table. […] The subjects were tilted to 70° head-up every 5 minutes for a total of 30 minutes with measurement of blood pressure and heart rate. There were no discontinuations among the twenty-two healthy male subjects (ages 19 to 60 years old) that entered this study.

[2] = test system: patients with male erectile dysfunction; test: Example 7: placebo-controlled on demand study in male erectile dysfunction (IIEF, SEP, safety); format: in vivo, human; settings: for patients who rated ability to maintain an erection (IIEF Question 4) as almost always or always: at endpoint
Experimental: A third clinical study was a randomized, double-blind, placebo-controlled study of Compound (I) administered “on demand” to patients with male erectile dysfunction. Compound (I) was administered over a period of eight weeks in the treatment of male erectile dysfunction (ED). Erectile dysfunction (ED) is defined as the persistent inability to attain and/or maintain an erection adequate to permit satisfactory sexual performance.
The study population consisted of 212 men, at least 18 years of age, with mild to severe erectile dysfunction. […] Treatment with all nitrates, azole antifungals (e.g., ketoconazole or itraconazole), warfarin, erythromycin, or antiandrogens was not allowed at any time during the study. No other approved or experimental medications, treatments, or devices used to treat ED were allowed. Forty-one subjects were administered a placebo.
The two primary efficacy variables were the ability of a subject to penetrate their partner and their ability to maintain an erection during intercourse, as measured by the International Index of Erectile Function (IIEF). The IIEF Questionnaire contains fifteen questions, and is a brief, reliable measure of erectile function. See R. C. Rosen et al., Urology, 49, pp. 822-830 (1997)
Secondary efficacy variables were IIEF domain scores for erectile function, orgasmic function, sexual desire, intercourse satisfaction, and overall satisfaction; the patient's ability to achieve an erection, ability to insert their penis into their partner's vagina, completion of intercourse with ejaculation, satisfaction with the hardness of their erection, and overall satisfaction, all as measured by the Sexual Encounter Profile (SEP) diary; and a global assessment question asked at the end of the treatment period. […]
The safety aspect of the study included all enrolled subjects, and was assessed by evaluating all reported adverse events, and changes in clinical laboratory values, vital signs, physical examination results, and electrocardiogram results.

patients in need thereof = test: Example 6: two randomized, double-blinded placebo controlled studies, daily and on demand dosing; format: in vivo, human
Experimental: In two randomized, double-blinded placebo controlled studies, Compound (I) was administered to patients in need thereof at a range of doses, in both daily dosing and for on demand therapy, for sexual encounters and intercourse in the home setting.
Enhanced erectile function was determined by the International Index of Erectile Function (IIEF) (Rosen et al., Urology, 49, pp. 822-830 (1997)), diaries of sexual attempts, and a global satisfaction question.

[3] = 10 mg daily for seven days, sublingual nitroglycerin 0.4 mg

flushing (patients in need thereof; doses from 5 to 20 mg)	SMILES	blood pressure effect in patients taking organic nitrates [1]	more potent inhibitor of PDE5 than PDE1 (PDEl)	changes in laboratory safety assessments or 12-lead ECGs (healthy male volunteers; 10 mg daily for seven days)	effect on mean maximal nitroglycerin-induced decrease in systolic blood pressure (healthy male volunteers; [3])	effect on mean systolic blood pressure (healthy male volunteers; [3])	impact on systolic blood pressure (healthy male volunteers; administered in conjunction with organic nitrates, human clinical studies)	patients who rated ability to maintain an erection (IIEF Question 4) as almost always or always ([2]; 10 mg on demand)	patients who rated ability to maintain an erection (IIEF Question 4) as almost always or always ([2]; 25 mg on demand)	incidence of treatment-emergent adverse events ([2]; 2 to 25 mg on demand)	efficacy for sexual encounters and intercourse (patients in need thereof; 10 mg dose)	side effects (patients in need thereof; 10 mg dose)	efficacy for sexual encounters and intercourse (patients in need thereof; doses from 5 to 20 mg)	percentage of successful intercourse attempts including ability to attain and maintain an erection (patients in need thereof; on demand and daily dosing regimens)
–	CCCc1nn(C)c2c(=O)[nH]c(-c3cc(S(=O)(=O)N4CCN(C)CC4)ccc3OCC)nc12 [sildenafil]	clinically significant drop in blood pressure	greater than 80 fold	–	–	–	–	–	–	–	–	–	–	–
less than 1%	CN1CC(=O)N2[C@H](c3ccc4c(c3)OCO4)c3[nH]c4ccccc4c3C[C@@H]2C1=O [Compound (I), (6R,12aR)-2,3,6,7,12,12a-hexahydro-2-methyl-6-(3,4-methylenedioxyphenyl)-pyrazino[2′,1′:6,1]pyrido[3,4-b]indole-1,4-dione]	–	–	no Compound (I) changes	minimal, if any, effect	minimal, if any, effect	minimal impact	39.0%	69.0%	appeared related to dose	fully efficacious	minimal side effects	efficacious	significantly improved
